Literature values in US5580957A, “GnRH analogs” (The Salk Institute for Biological Studies, priority 1994, dated 1996).

Assays:
receptor (GnRH) = target: T1, receptor (GnRH) (Homo sapiens, UniProt P30968); conditions: background statement
T1 sequence (P30968 1-328): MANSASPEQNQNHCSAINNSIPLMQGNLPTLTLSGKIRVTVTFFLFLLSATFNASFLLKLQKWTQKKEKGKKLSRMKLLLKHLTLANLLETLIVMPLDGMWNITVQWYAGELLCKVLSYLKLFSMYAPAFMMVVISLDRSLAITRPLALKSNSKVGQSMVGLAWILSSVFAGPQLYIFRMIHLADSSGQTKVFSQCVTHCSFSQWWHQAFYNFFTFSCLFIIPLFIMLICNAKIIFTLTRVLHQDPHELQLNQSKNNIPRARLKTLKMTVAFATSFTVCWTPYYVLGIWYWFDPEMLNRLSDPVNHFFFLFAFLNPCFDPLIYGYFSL

GnRH = conditions: background statement

## pGlu-His-Trp-Ser-Tyr-D-Ala-Leu-Arg-Pro-Gly-NH2 [[D-Ala^6]-GnRH]
Receptor (GnRH)
  binding strength to the receptor versus native hormone: greater binding strength
GnRH
  biological potency versus native hormone: greater biological potency than the native hormone
